Reference: patent US20210255184A1, “Biosensor Device and Methods” (The New Zealand Institute for Plant and Food Research …, priority 2018, published 2021)
Read-outs that look alike come from different tables or passages of the source.

Columns and labels:
Or10a = biological target: T1, Or10a (Drosophila melanogaster, UniProt Q9VYZ1); assay: GFET sensor, Or10a liposomes; assay type: biochemical; conditions: Table 4, GFET
T1 construct: his-tag; made in house; host or cells: baculovirus-infected Sf9 cells
T1 sequence (Q9VYZ1 1-406): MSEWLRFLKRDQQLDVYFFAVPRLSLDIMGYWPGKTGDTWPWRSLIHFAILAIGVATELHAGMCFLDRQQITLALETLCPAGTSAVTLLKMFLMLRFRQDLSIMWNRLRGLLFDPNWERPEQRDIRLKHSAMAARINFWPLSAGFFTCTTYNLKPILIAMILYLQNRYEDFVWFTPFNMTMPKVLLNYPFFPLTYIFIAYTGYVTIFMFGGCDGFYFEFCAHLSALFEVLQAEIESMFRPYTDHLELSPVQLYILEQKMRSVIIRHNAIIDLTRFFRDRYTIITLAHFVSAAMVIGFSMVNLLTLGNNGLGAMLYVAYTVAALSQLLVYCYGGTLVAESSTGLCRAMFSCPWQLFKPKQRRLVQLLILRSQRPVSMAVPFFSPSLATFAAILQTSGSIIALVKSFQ
Excerpt: (§1) The GFETs used in this study were fabricated from a predeposited graphene film on 300 nm SiO2 coated Si substrate from ACS Suppliers, USA. The FETs consist of a channel with dimensions of 100 μm width and […]. The key steps involved in fabricating the GFET on a Si/SiO2 substrate is schematically illustrated in FIG. 12. The source and drain electrodes were defined by photolithography and formed by successive deposition of Cr and Au. Both the drain and source electrodes were then encapsulated using AZ1518 photoresist and a channel with dimensions of 100 μm width and 10 μm length was left open to the environment for gating and functionalisation.
(§2) The OR liposomes were functionalised onto the graphene surface via a non-covalent route using PBASE as the molecular linker as shown in FIG. 13. The OR liposomes were diluted at 1:10 ratio with 1×PBS (pH7.4). The cleaned GFETs were immersed in 1 mM PBASE solution in methanol for 1 hour. […]
(§3) Electrical sensor measurements of OR liposome functionalised GFETs were carried out using top liquid gate morphology as shown in the schematic in FIG. 15 (a). […] The transfer characteristics of the different graphene FETs (FIG. 15 (b) to (g)) were measured at Vds=1 mV while the liquid gate voltage Vlg was swept from −0.5 V to 1 V with an interval of 20 mV. […]

Or10a/Orco = biological target: T2, Or10a/Orco (Drosophila melanogaster, UniProt Q9VYZ1); assay: GFET sensor, Or10a/Orco liposomes; assay type: biochemical; conditions: Table 4, GFET
T2 construct: his-tag; made in house; host or cells: baculovirus-infected Sf9 cells
T2 sequence (Q9VYZ1 1-406): T1 sequence (Q9VYZ1 1-406)
T2 sequence (Q9VNB5 1-486 partner): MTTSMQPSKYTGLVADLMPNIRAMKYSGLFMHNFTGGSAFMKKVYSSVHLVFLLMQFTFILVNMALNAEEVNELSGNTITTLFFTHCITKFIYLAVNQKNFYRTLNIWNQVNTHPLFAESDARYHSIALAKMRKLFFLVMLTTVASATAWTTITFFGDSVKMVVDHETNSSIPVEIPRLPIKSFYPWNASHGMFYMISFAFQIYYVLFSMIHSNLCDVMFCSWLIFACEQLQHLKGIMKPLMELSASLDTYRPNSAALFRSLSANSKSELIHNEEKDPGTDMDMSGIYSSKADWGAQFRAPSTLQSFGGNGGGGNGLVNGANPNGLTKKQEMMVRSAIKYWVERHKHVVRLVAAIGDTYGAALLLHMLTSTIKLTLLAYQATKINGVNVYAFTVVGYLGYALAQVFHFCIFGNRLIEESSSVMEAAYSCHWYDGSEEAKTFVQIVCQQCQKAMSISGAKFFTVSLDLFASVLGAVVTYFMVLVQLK
Excerpt: as §1, §2, §3

Or22a = biological target: T3, Or22a (Drosophila melanogaster, UniProt P81909); assay: GFET sensor, Or22a liposomes; assay type: biochemical; conditions: Table 4, GFET
T3 construct: his-tag; made in house; host or cells: baculovirus-infected Sf9 cells
T3 sequence (P81909 1-397): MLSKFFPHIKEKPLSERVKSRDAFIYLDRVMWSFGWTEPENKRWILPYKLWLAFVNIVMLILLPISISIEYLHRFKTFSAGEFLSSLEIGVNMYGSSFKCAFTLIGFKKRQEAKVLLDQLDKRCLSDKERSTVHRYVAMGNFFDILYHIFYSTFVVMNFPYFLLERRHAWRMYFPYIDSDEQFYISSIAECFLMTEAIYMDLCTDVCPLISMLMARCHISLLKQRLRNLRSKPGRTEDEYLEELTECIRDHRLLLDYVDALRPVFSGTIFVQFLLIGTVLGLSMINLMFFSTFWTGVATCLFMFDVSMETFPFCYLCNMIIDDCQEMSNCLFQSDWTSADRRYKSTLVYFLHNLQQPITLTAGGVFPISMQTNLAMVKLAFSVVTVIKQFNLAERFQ
Excerpt: as §1, §2, §3

Or22a/Orco = biological target: T4, Or22a/Orco (Drosophila melanogaster, UniProt P81909); assay: GFET sensor, Or22a/Orco liposomes; assay type: biochemical; conditions: Table 4, GFET
T4 construct: his-tag; made in house; host or cells: baculovirus-infected Sf9 cells
T4 sequence (P81909 1-397): T3 sequence (P81909 1-397)
T4 sequence (Q9VNB5 1-486 partner): T2 sequence (Q9VNB5 1-486 partner)
Excerpt: as §1, §2, §3

DmOr22a/Orco = biological target: T5, DmOr22a/Orco (Drosophila melanogaster, UniProt P81909); conditions: * estimated visually from graph, cited from earlier work
T5 sequence (P81909 1-397): T3 sequence (P81909 1-397)
T5 sequence (Q9VNB5 1-486 partner): T2 sequence (Q9VNB5 1-486 partner)

SMILES: COC(=O)c1ccccc1O [methyl salicylate]
- Detection Range (Or10a): 10^−12 to 10^−8 M
- EC50 (Or10a): 15.6 pM
- Detection Range (Or10a/Orco): 10^−13-10^−8 M
- EC50 (Or10a/Orco): 2.07 pM

SMILES: CCCCCC(=O)OC [methyl hexanoate]
- Detection Range (Or22a): 10^−12 to 10^−8 M
- EC50 (Or22a): 12.1 pM
- Detection Range (Or22a/Orco): 10^−13-10^−8 M
- EC50 (Or22a/Orco): 3.91 pM
- Sensitivity limit (given as Log) (DmOr22a/Orco; ref 43): Log = −7.5*
- Sensitivity limit (given as Log) (DmOr22a/Orco; ref 44): Log = −7*
